Reference: patent US20100268174A1, “COMBINATION OF ALCOHOL LOCK AND GENTIAN VIOLET CATHETER” (priority 2007, published 2010)

Columns and labels:
[1] = assay type: physicochemical
Procedure: One of the surprising findings about the temperature effects is that certain classes of polyurethanes are processable below the degradation temperature and other classes are not.
Compounding Conditions for Stable Gentian Violet:
Barrel Temperatures: • Zone 1-5=170° C. • Zone 6=175° C.,
Compounding Temperature for Degraded Gentian Violet:
Compounding was performed with Sigma Aldrich ACS grade gentian violet, lot 016K3691. HPLC analysis was performed by cutting and measuring 1 cm segments of each formulation (n=3) using the method described in Examples II and III.
The chromatograms show the stable gentian violet followed by the degraded gentian violet, at 588 nm, 253 nm, and 280 nm. The degradation peaks from the 217° C. sample are evident as the new peaks at 253 and 280 nm wavelengths. The chromatogram of the low processing temperature was identical to that of the Gentian Violet raw material.

[2] = Temperature effect (high temperatures) on degradation of gentian violet compounded in Carbothane resin (HPLC); assay type: physicochemical; details: drop in extractable GV content
Procedure: Gentian violet contents from compounded resin and tube sample were analyzed via HPLC method. HPLC analysis on GV loaded resin or compounded pellets was performed by weighing 0.1-0.3 g, which is roughly equivalent to 10-20 pellets (depending on the weight of the raw material used) of each formulation (n=3) and digesting in THF (5 mL or 7.5 mL) in 50 mL centrifuge tubes. Samples were allowed to sit for 45 minutes, and then vortexed until all of the polymer dissolved. An equal amount of deionized (DI) water was then added (5 or 7.5 mL), and the samples were again vortexed for 5 minutes, and then centrifuged for 10 minutes. A portion of each sample was then added to an HPLC vial and capped prior to HPLC analysis. HPLC analysis was performed on an Agilent 1200 Series LC using an Agilent Eclipse XDB-CN 5μ 4.6×150 mm column with the corresponding guard column. A gradient program was run using two solvent reservoirs: The sample preparation for loading GV on resin pellets is similar to EXAMPLE V. Gentian violet was purchased from (Sigma-Aldrich, St. Louis, Mo.) and Carbothane®-3585A-B20 (Noveon, Cleveland, Ohio) was used. The heating profile was varied for each run.

[3] = Temperature effect (196-219 °C) on degradation of gentian violet compounded in Carbothane resin (HPLC); assay type: physicochemical; details: compounded Carbothane resin with 0.5% GV
Procedure: Gentian violet contents from compounded resin and tube sample were analyzed via HPLC method. HPLC analysis on GV loaded resin or compounded pellets was performed by weighing 0.1-0.3 g, which is roughly equivalent to 10-20 pellets (depending on the weight of the raw material used) of each formulation (n=3) and digesting in THF (5 mL or 7.5 mL) in 50 mL centrifuge tubes. Samples were allowed to sit for 45 minutes, and then vortexed until all of the polymer dissolved. An equal amount of deionized (DI) water was then added (5 or 7.5 mL), and the samples were again vortexed for 5 minutes, and then centrifuged for 10 minutes. A portion of each sample was then added to an HPLC vial and capped prior to HPLC analysis. HPLC analysis was performed on an Agilent 1200 Series LC using an Agilent Eclipse XDB-CN 5μ 4.6×150 mm column with the corresponding guard column. A gradient program was run using two solvent reservoirs: 5 g of gentian violet (Sigma-Aldrich, St. […] Louis, Mo.). 1000 g of Carbothane®-3585A-B20 (Noveon, Cleveland, Ohio) resin was added in to the gentian violet/ethanol solution. The ethanol solvent was evaporated off in a chemical fume hood overnight at ambient conditions. The gentian violet coated pellets were then dried at 50° C. and 30 inches Hg for 24 hrs prior to compounding. […] The melt temperatures from each run are recorded in Table 6. […]

most microorganisms = details: Sissons et al. 1996; cited from earlier work
[4] = test system: all organisms of interest
Procedure: Dilutions were prepared in Cationic Adjusted Mueller Hinton Broth (CAMHB). All tests were performed in microtiter plates with a total test volume of 100 μL, including diluted antimicrobial agent and inoculum. Concentrations of antimicrobial agents were prepared at 2× concentration, and 50 μL was added to each well of a microtiter plate, to which 50 μL of inoculum of the test organism was added to give the target test concentration.
Cells were subsequently centrifuged, and resuspended twice in phosphate buffered saline. The population of this bacterial suspension was determined by reading optical density at 670 nm. […] Initial concentrations were verified using the Miles and Misra drop count method. […] Incubation was at 37° C. for 16 to 20 hours.
To determine MBC values, 50 μl was removed from each well showing inhibition of growth (MIC and greater). Solutions from these inhibitory concentrations of antimicrobial agent were diluted in CAMHB to concentrations where they would no longer inhibit the growth of the test organism. Recovery counts were obtained by plating aliquots of the diluted material onto TSA plate containing 5% sheep's blood, and incubating 24 hours at 37° C.

Compound | processing temperature at which degradation starts [1] | processing temperature at which extruded gentian violet was found to degrade [1] | processing temperature that does not degrade gentian violet [1] | temperature above which there is significant degradation of the GV [2] | processing temperature up to which GV content is essentially unchanged [3] | onset of degradation (processing temperature) ([3]; worse at 219° C.) | concentration generally considered bactericidal (most microorganisms) | concentration that inhibits the growth of most microorganisms (most microorganisms) | concentration at which the solution will not inhibit microbial growth [4] | subinhibitory concentration ([4]; for all organisms of interest) | ethanol lock concentration cidal towards most commonly encountered infectious pathogens ([4]; suggested by the Table 1 results)
CN(C)c1ccc(C(=C2C=CC(=[N+](C)C)C=C2)c2ccc(N(C)C)cc2)cc1 [gentian violet] | about 209 °C | 217 °C | under 207 °C | above 220 °C | ≤ 206 °C | 209 °C |  |  |  |  | 
CCO [ethanol] |  |  |  |  |  |  | ≥ 40% | 10% | below 7% | 5% | above 25%
